Experimental data from patent US8247211B2, “Glycopeptide antibiotics” (American Cyanamid Company, priority 2001, dated 2012).
Values after ≈ are worked out from the molar mass of the structure shown.

Columns and labels:
Test in all cases: In vitro antibacterial evaluation: minimum inhibitory concentration (MIC), broth dilution method
Format in all cases: cell-based
Staphylococcus sp. = details: broth dilution, 18 hours at 35° C.
Experimental: (§1) The minimum inhibitory concentration (MIC), the lowest concentration of the antibiotic which inhibits growth of the test organism, is determined by the broth dilution method using Muller-Hinton II […] (Baltimore Biological Laboratories) following the recommendations of the National Committee for Clinical Laboratory Standards [Methods for dilution antimicrobial susceptibility tests for bacteria that grow aerobically, approved standard M7-A2, National Committee for Clinical Laboratory Standards, Villanova, Pa].
(§2) An inoculum level of 5×10^5 CFU/mL, and a range of antibiotic concentrations (64-0.06 μg/mL) is used. […] The test organisms include a spectrum of Gram-positive bacteria comprised of Staphylococcus sp., Streptococcus sp. and Enterococcus sp. These organisms include recent clinical isolates that are resistant to methicillin, penicillin and/or vancomycin.

Escherichia coli = system: Escherichia coli
Experimental: as §1, §2

Streptococcus sp. = system: Streptococcus sp.
Experimental: as §1, §2

Enterococcus sp. = system: Enterococcus sp.
Experimental: as §1, §2

CC(c1ccccc1)C1NC(=O)CNC(=O)C(CO)NC(=O)C(C(O)C2CNC(=N)N2C2OC(CO)C(O)C(O)C2O)NC(=O)C(C(O)C2CNC(=N)N2)NC(=O)C(Cc2ccc(OC3OC(CO)C(OC4OC5COC(c6ccc7ccccc7c6)OC5C(O)C4O)C(O)C3O)cc2)NC1=O (stereo not drawn) [Example 145, Cyclo[glycyl-β-methylphenylalanyl-O-[4-O-[4,6-O-(2-naphthylmethylene)hexopyranosyl]-hexopyranosyl]tyrosyl-3-(2-iminoimidazolidin-4-yl)seryl-3(3-hexopyranosyl-2-iminoimidazolidin-4-yl)serylseryl]]
MIC Coagulase Negative Staphylococcus (GC 4547) (Staphylococcus sp.; 5×10^5 CFU/mL): 1 µg/mL (≈ 0.698 µM)
MIC Coagulase Negative Staphylococcus (GC 4548) (Staphylococcus sp.; 5×10^5 CFU/mL): <0.5 µg/mL
MIC Coagulase Negative Staphylococcus (GC 4549) (Staphylococcus sp.; 5×10^5 CFU/mL): 1 µg/mL (≈ 0.698 µM)
MIC Coagulase Negative Staphylococcus (GC 4551) (Staphylococcus sp.; 5×10^5 CFU/mL): <0.5 µg/mL
MIC Coagulase Negative Staphylococcus (GC 6257) (Staphylococcus sp.; 5×10^5 CFU/mL): 0.5 µg/mL (≈ 0.349 µM)
MIC Staphylococcus aureus (ATCC 29213) (Staphylococcus sp.; 5×10^5 CFU/mL): 1 µg/mL (≈ 0.698 µM)
MIC Staphylococcus aureus (GC 1131) (Staphylococcus sp.; 5×10^5 CFU/mL): <0.5 µg/mL
MIC Staphylococcus aureus (GC 3051) (Staphylococcus sp.; 5×10^5 CFU/mL): 1 µg/mL (≈ 0.698 µM)
MIC Staphylococcus aureus (GC 3053) (Staphylococcus sp.; 5×10^5 CFU/mL): 1 µg/mL (≈ 0.698 µM)
MIC Staphylococcus aureus (GC 4541) (Staphylococcus sp.; 5×10^5 CFU/mL): <0.5 µg/mL
MIC Staphylococcus aureus (GC 4542) (Staphylococcus sp.; 5×10^5 CFU/mL): <0.5 µg/mL
MIC Staphylococcus aureus (GC 4544) (Staphylococcus sp.; 5×10^5 CFU/mL): 1 µg/mL (≈ 0.698 µM)
MIC Staphylococcus aureus (GC 4545) (Staphylococcus sp.; 5×10^5 CFU/mL): 1 µg/mL (≈ 0.698 µM)
MIC Staphylococcus aureus-SMITH (GC 4543) (Staphylococcus sp.; 5×10^5 CFU/mL): <0.5 µg/mL
MIC Staphylococcus haemolyticus (GC 4546) (Staphylococcus sp.; 5×10^5 CFU/mL): <0.5 µg/mL
MIC Staphylococcus aureus (ATCC 29213) (Staphylococcus sp.; strain ATCC 29213): 1 µg/mL (≈ 0.698 µM)
MIC Staphylococcus aureus (GC 1131) (Staphylococcus sp.; strain GC 1131): <0.5 µg/mL
MIC Staphylococcus aureus (GC 3051) (Staphylococcus sp.; strain GC 3051): 1 µg/mL (≈ 0.698 µM)
MIC Staphylococcus aureus (GC 3053) (Staphylococcus sp.; strain GC 3053): 1 µg/mL (≈ 0.698 µM)
MIC Staphylococcus aureus (GC 4541) (Staphylococcus sp.; strain GC 4541): <0.5 µg/mL
MIC Staphylococcus aureus (GC 4542) (Staphylococcus sp.; strain GC 4542): <0.5 µg/mL
MIC Staphylococcus aureus-SMITH (GC 4543) (Staphylococcus sp.; strain GC 4543): <0.5 µg/mL
MIC Staphylococcus aureus (GC 4544) (Staphylococcus sp.; strain GC 4544): 1 µg/mL (≈ 0.698 µM)
MIC Staphylococcus aureus (GC 4545) (Staphylococcus sp.; strain GC 4545): 1 µg/mL (≈ 0.698 µM)
MIC Staphylococcus haemolyticus (GC 4546) (Staphylococcus sp.; strain GC 4546): <0.5 µg/mL
MIC Coagulase Negative Staphylococcus (GC 4547) (Staphylococcus sp.; strain GC 4547): 1 µg/mL (≈ 0.698 µM)
MIC Coagulase Negative Staphylococcus (GC 4548) (Staphylococcus sp.; strain GC 4548): <0.5 µg/mL
MIC Coagulase Negative Staphylococcus (GC 4549) (Staphylococcus sp.; strain GC 4549): 1 µg/mL (≈ 0.698 µM)
MIC Coagulase Negative Staphylococcus (GC 4551) (Staphylococcus sp.; strain GC 4551): <0.5 µg/mL
MIC Coagulase Negative Staphylococcus (GC 6257) (Staphylococcus sp.; strain GC 6257): 0.5 µg/mL (≈ 0.349 µM)
MIC Escherichia coli (ATCC 25922) (Escherichia coli; strain ATCC 25922): 64 µg/mL (≈ 44.6 µM)
MIC Escherichia coli (GC 4559) (Escherichia coli; strain GC 4559): 32 µg/mL (≈ 22.3 µM)
MIC Escherichi coli (GC 4560) (Escherichia coli; strain GC 4560): <0.5 µg/mL
MIC Streptococcus pneumoniae (ATCC 6301) (Streptococcus sp.; strain ATCC 6301): <0.5 µg/mL
MIC Streptococcus pneumoniae (GC 1894) (Streptococcus sp.; strain GC 1894): <0.5 µg/mL
MIC Streptococcus pyogenes (GC 4563) (Streptococcus sp.; strain GC 4563): 1 µg/mL (≈ 0.698 µM)
MIC Streptococcus agalactiae (GC 4564) (Streptococcus sp.; strain GC 4564): <0.5 µg/mL
MIC Streptococcus pneumoniae (GC 4565) (Streptococcus sp.; strain GC 4565): <0.5 µg/mL
MIC Enterococcus faecalis (ATCC 29212) (Enterococcus sp.; strain ATCC 29212): 1 µg/mL (≈ 0.698 µM)
MIC Enterococcus faecalis (GC 2242) (Enterococcus sp.; strain GC 2242): <0.5 µg/mL
MIC Enterococcus faecium (GC 2243) (Enterococcus sp.; strain GC 2243): 1 µg/mL (≈ 0.698 µM)
MIC Enterococcus faecalis (GC 2691) (Enterococcus sp.; strain GC 2691): 1 µg/mL (≈ 0.698 µM)
MIC Enterococcus faecalis (GC 3059) (Enterococcus sp.; strain GC 3059): 1 µg/mL (≈ 0.698 µM)
MIC Enterococcus faecalis (GC 4552) (Enterococcus sp.; strain GC 4552): 1 µg/mL (≈ 0.698 µM)
MIC Enterococcus faecalis (GC 4553) (Enterococcus sp.; strain GC 4553): 2 µg/mL (≈ 1.4 µM)
MIC Enterococcus faecalis (GC 4554) (Enterococcus sp.; strain GC 4554): 1 µg/mL (≈ 0.698 µM)
MIC Enterococcus faecium (GC 4556) (Enterococcus sp.; strain GC 4556): 1 µg/mL (≈ 0.698 µM)
MIC Enterococcus faecium (GC 4557) (Enterococcus sp.; strain GC 4557): 1 µg/mL (≈ 0.698 µM)
MIC Enterococcus avium (GC 4558) (Enterococcus sp.; strain GC 4558): 1 µg/mL (≈ 0.698 µM)
MIC Enterococcus faecalis (GC 6189) (Enterococcus sp.; strain GC 6189): 1 µg/mL (≈ 0.698 µM)
